Assay results from US8933029B2, “Antimicrobial and anti-inflammatory peptides” (Carrus Capital Corporation, priority 2001, dated 2015).
Ends that are not written are not given here.

Assays:
[1] = tested on: oxazolone contact hypersensitivity (ear inflammation); experiment: Oxazolone contact hypersensitivity model; format: in vivo, CD-1 mice; settings: Dosage of 0.1%, applied to ear one hour after oxazolone challenge, ear punch weight after 24 h, 70% EtOH/30% propylene glycol vehicle
Procedure: Briefly, a 3.0% (w/v) solution of oxazolone in acetone/corn oil (5:1) is applied topically to the skin on the shaved abdomens of mice of approximately the same weight and approximately the same age on day 0. […] Twenty-four hours later a dermal biopsy punch of the treated ear is taken and weighed.
CD-1 mice are treated with 3% oxazolone (Sigma) (30 mg/ml) in corn oil:acetone on a shaved abdomen. All solutions are sonicated for 7 minutes. Five days later, the mice are challenged with a 2% oxazolone (20 mg/ml) in acetone on the left ear, with the right ear being left untreated (control). One hour after challenge, the candidate peptide in a 70% EtOH/30% propylene glycol formulation (vehicle) was applied to the left ear, with the right ear being left untreated. After 24 h, 7 mm ear punches are taken from each ear of the mice. The ear punches are placed on a scale and the difference between the treated and untreated ears were compared. The percent inhibition of inflammation was calculated by comparing the mean of each treated group to the control group. The positive control is hydrocortisone (a known anti-inflammatory agent). Most of the indolicidin peptides inhibited inflammation as well as hydrocortisone.

TPA-induced ear edema = experiment: TPA ear edema model; settings: topical 1.0%, formulated in 95% ethanol; ear biopsy weight six hours after TPA
IL-2 = experiment: Inhibition of cytokine production in PHA-activated PBLs (ELISA); format: cell-based; settings: human PBLs, 10 μg/ml PHA, 48 hours, supernatant ELISA
Procedure: (§1) Briefly, human PBLs are collected from a subject and plated at 10^6 cells/ml in serum free lymphocyte growth medium, stimulated with 10 μg/ml phytohemagglutinin (PHA) in the presence or absence of the candidate peptide. The PBLs are incubated at 37° C. at 5% CO2 for 48 h, at which point the supernatants were collected. An ELISA is performed on the supernatants to detect a cytokine of interest (e.g., IL-1, TNF-α, IFN-γ) and the cells are incubated for another 72 h to measure proliferation (see, e.g., Sigusch et al., J. Periodontol. 69:1098, 1998).
(§2) Human peripheral blood lymphocytes (PBLs) were collected from a healthy adult […] and plated at 10^6 cells/ml in serum free lymphocyte growth media in a 96-well plate. The PBLs were stimulated with 10 μg/ml PHA in the presence or absence of test sample and incubated at 37° C. at 5% CO2 for 48 hours. Collected and pooled supernatants were stored at −20° C., then assayed with commercially available ELISA kits (Endogen and Biosource) and assayed for viability with LDH (Bochringer Mannheim). The cells remaining after supernatant removal were returned to the incubator and proliferation was determined at 72 hours by using AlamarBlue (Alamar Bioscience). Compounds were tested at 1, 10, 100 and 1000 μg/ml. The peptides were effective at inhibiting cytokine production and PBL proliferation (Table 4), which indicates these peptides can function as anti-inflammatory agents.

IL-4 = experiment: as above; format: cell-based; settings: human PBLs, 10 μg/ml PHA, 48 hours, supernatant ELISA
Procedure: as §1, §2

IL-10 = experiment: as above; format: cell-based; settings: human PBLs, 10 μg/ml PHA, 48 hours, supernatant ELISA
Procedure: as §1, §2

IL-6 = experiment: as above; format: cell-based; settings: human PBLs, 10 μg/ml PHA, 48 hours, supernatant ELISA
Procedure: as §1, §2

IL-1α = experiment: as above; format: cell-based; settings: human PBLs, 10 μg/ml PHA, 48 hours, supernatant ELISA
Procedure: as §1, §2

TNFα = experiment: as above; format: cell-based; settings: human PBLs, 10 μg/ml PHA, 48 hours, supernatant ELISA
Procedure: as §1, §2

IFNγ = experiment: as above; format: cell-based; settings: human PBLs, 10 μg/ml PHA, 48 hours, supernatant ELISA
Procedure: as §1, §2

IL-12 = experiment: as above; format: cell-based; settings: human PBLs, 10 μg/ml PHA, 48 hours, supernatant ELISA
Procedure: as §1, §2

Substance | % Inhibition of Inflammation [1] [%] | Topical Dose (% change vs. vehicle) 1.0% (TPA-induced ear edema) [%] | IC50 IL-2 (IL-2) [µg/mL] | IC50 IL-4 (IL-4) [µg/mL] | IC50 IL-10 (IL-10) [µg/mL] | IC50 IL-6 (IL-6) [µg/mL] | IC50 IL-1α (IL-1α) [µg/mL] | IC50 TNFα (TNFα) [µg/mL] | IC50 IFNγ (IFNγ) [µg/mL] | IC50 IL-12 (IL-12) [µg/mL]
WRWWKPKWRWPKW-NH2 [Peptide 11J02CN, W R W W K P K W R W P K W] | 58.12 | −44 | >1000 | 115 | 23 | 510 | 7 | 34 | 45 | 34
WRWWKVAWRWVKW-NH2 [Peptide 11J30CN, W R W W K V A W R W V K W] | 94.15 | −26 | >1000 | 65 | 33 | 4 | 25 | 36 | 28 | 26
